Patent publication US7176280B2, “Isolated polypeptides and compositions from the venom of P. transvaalicus and methods of use” (The Regents of the University of California, priority 2001, dated 2007)
Entries after “also recorded” stand apart in the source; their conditions may differ. No end group written: not given here.

Experiments:
[1] = cited from earlier work
[2] = tested on: Male Swiss-Webster mice; test: Mouse injection bioassay (intracerebroventricular; also subcutaneous, intraperitoneal); type: in vivo; conditions: for symptoms in injected mice (in words): intracerebroventricular injection, dose not given or as in the words; for symptoms in mice: 7–8 week old male Swiss-Webster mice; for Mouse (IC) high dose / Mouse (IC) low dose: preliminary biological activity
Protocol: (§1) Bioassays: Male Swiss-Webster mice were purchased from Charles River, Inc., and housed at the Animal Housing Facility, UC Davis. Blowfly (Sarcophaga spp.), crickets (Acheta domesticus) and Anole lizards (Anoles caroliensis) were purchased from Carolina Biologicals (Burlington, N.C.). Cotton bollworms (Heliothis virescens) were obtained from USDA/ARS (Stoneville, […].) and reared on artificial diet. Collected fractions were tested on mice by intracerebroventricular injections and by injecting last instar blowfly larvae. Third instar cotton bollworms and adult common house crickets were also used in screening for insecticidal components. Briefly, fractions were concentrated to dryness using a Heto Speed Vac (ATR, Inc. Emeryville, Calif.). Dried samples were resuspended in 10 μl 20 mM ammonium acetate buffer with 1 μg/μl BSA and incubated overnight at 4° C. to insure proper refolding before injection to the test animals. Mice were anesthetized using ethyl ether and intracerebroventricular injections of peptide solutions were executed immediately. […] All symptoms were observed and recorded up to 24 hours post injection. All experiments were carried out in accordance with the guidelines laid down by the National Institutes of Health in the USA regarding the care and use of experimental animals.
Next, the biological activities of Ikitoxin and Birtoxin were compared. Mouse biological activity was evaluated by intracerebroventricular injections of 7–8 week old male Swiss-Webster mice using […] purified toxin.
The biological activities of dortoxin, bestoxin, and ikitoxin were evaluated in blowfly larvae, tobacco budworm larvae, and mice. Blowfly larvae, tobacco budworm larvae were injected with 1 μL of fraction or toxin solution in water. The effects were observed and recorded up to 24 hrs post injection. The toxins to were also injected to mice (swiss-webster male 4–6 week old mice) through an intracerebroventricular route (brain). The mice were anesthetized using ethyl ether then injected with various doses of 5 μL of test solution. The effects were again observed and recorded up to 24 hrs post injection. […] The experiments were terminated after 48 hrs of observation. […] Bestoxin is only two amino acid different from its sister peptide dortoxin. The MALDI determined molecular masses for dortoxin (6643 Da) and bestoxin (6603 Da) also agree with the two amino acid difference of Lys20 in dortoxin to Glu20 in bestoxin and Glu45 in dortoxin to Ser45 in bestoxin.

[3] = tested on: rat brain synaptosomes; type: binding; conditions: for EC50: read-out: EC50 (effective concentration)
[4] = tested on: sodium channel binding site 3; test: Ion channel binding properties of birtoxin
[5] = tested on: Blowfly (Sarcophaga spp.) larvae; test: Blowfly larvae injection bioassay; type: in vivo; conditions: for activity against blowfly (Sarcophaga) larvae (in words): injection into larvae
Protocol: Uctoxin HPLC Purification: Uctoxin was purified through three steps of RP-HPLC guided by insect and mouse bioassays. Initially the venom of P.transvaalicus was resuspended in solvent A (2% acetonitrile 98% water 0.1% TFA) and ran multiple times through a C4 magic bullet column hooked up to a Magic 2002 microbore HPLC System with a linear gradient of 2 to 65% solvent B (98% acetonitrile 2% water 0.1% TFA) in 15 minutes at a flow rate of 300 μL/min. as described above for ikitoxon. UV trace at 214 and 280 nm was monitored. Fraction P3 from the first column was collected, several runs were pooled and freeze dried. This fraction was run on a Michrom C18 microbore column on the same system with a linear gradient of 2 to 65% solvent B in 30 minutes at a flow rate of 50 μL/min. Peak 2 from the C18 column was further purified by running it through a microbore phenyl column on the same system with the same gradient conditions. Purity was confirmed using MALDI-TOF MS. Biological activity of peptide was monitored by intracerebroventricular injection of mice and also injections of blowfly and tobacco budworm larvae. For bioassays uctoxin was purified and resuspended in 20 mM ammonium acetate buffer with 1 ug/ul BSA. (The 50% effective doses (ED50) were determined according to Reed and Muench (Reed L. J., Muench, S. 1938 Am.J.Hyg 27, 493–497.))
as §1
The biological activities of dortoxin, bestoxin, and ikitoxin were evaluated in blowfly larvae, tobacco budworm larvae, and mice. Blowfly larvae, tobacco budworm larvae were injected with 1 μL of fraction or toxin solution in water. The effects were observed and recorded up to 24 hrs post injection. The toxins to were also injected to mice (swiss-webster male 4–6 week old mice) through an intracerebroventricular route (brain). The mice were anesthetized using ethyl ether then injected with various doses of 5 μL of test solution. The effects were again observed and recorded up to 24 hrs post injection. […] The MALDI determined molecular masses for dortoxin (6643 Da) and bestoxin (6603 Da) also agree with the two amino acid difference of Lys20 in dortoxin to Glu20 in bestoxin and Glu45 in dortoxin to Ser45 in bestoxin.

[6] = tested on: Male Swiss-Webster mice; test: Mouse injection bioassay (intracerebroventricular; also subcutaneous, intraperitoneal); type: in vivo; conditions: preliminary biological activity
[7] = tested on: Insect Lepidoptera; test: Parakinin in vivo assay on Lepidoptera; conditions: preliminary biological activity
Excerpt: The preliminary biological activity of parakinins I investigated by in vivo assays conducted on insects and mice. Parakinins are active and potent against both invertebrates and vertebrates. These in vivo effects implicate potential pharmaceutical use and development. Due to the small nature of parakinins analogs of these peptides can be synthesized and tested very rapidly.

[8] = intracerebroventricular, 0.2–1 mg purified toxin

## RPPGFSPFR [bradykinin]
[1]; anesthetized rat
  destroyed on a single passage through the pulmonary circulation: 98%–99%
[1]; rat, in vivo
  half life in the systemic circulation: less than 30 seconds

## bestoxin (ADVPGNYPLDKDGNTYTCLELGENKDCQKVCKLHGVQYGYCYAFSCWCKEYLDDKDSV; listed as Parabuthus transvaalicus)
[2]; intracerebroventricular
  sensitivity to stimuli of injected mice: hypersensitive to stimuli
  state of the mice at the end of 48 hrs: still live, dessicated, and exhausted but still continued to roll
[2]
  symptoms in injected mice (in words): contract, twist and roll around itself indefinitely

## birtoxin (ADVPGNYPLDKDGNTYKCFLLGGNEECLNVCKLHGVQYGYCYASKCWCEYLEDDKDVS; not fully specified; ends and bridges not checked)
[3]
  enhancement of the binding of [3H] BTX: about 4.32 fold
  EC50: ~5 nM
[2]; 1 μg of pure birtoxin
  effect of injection in mice: induced severe neurotoxic symptoms in mice up to 24 hours but was not lethal
[2]; 2 μg of pure peptide
  effect of injection in mice: lethal
[2]
  symptoms in injected mice (in words): induced serious symptoms, including tremors, which lasted up to 24 hours post injection at submicrogram amounts
[2]; [8]
  symptoms in mice: convulsions, tremors, increased heart rate and finally death
[2]; mouse, in vivo
  lethality to mice (summary statement): lethal to mice at low microgram quantities
[4]
  sodium channel binding site and mode of action: binds to sodium channel binding site 3 and blocks the sodium channel by prolonging the inactivation

## dortoxin (ADVPGNYPLDKDGNTYTCLKLGENKDCQKVCKLHGVQYGYCYAFECWCKEYLDDKDSV; listed as Parabuthus transvaalicus)
[2]
  symptoms in injected mice (in words): convulsions, tremors and death
[2]; intracerebroventricular, Swiss-Webster male 4–6 week old mice
  LD99: < 0.5 μg/20 gr of mouse

## ikitoxin (ADVPGNYPLDKDGNTYKCFLLGENEECLNVCKLHGVQYGYCYASKCWCEYLEDDKDVS; listed as Parabuthus transvaalicus)
[5]
  activity against blowfly (Sarcophaga) larvae (in words): not active against Sarcophaga
[2]
  symptoms in injected mice (in words): induced periodic unprovoked jumps in injected mice
[2]; [8]
  time course of the symptom: Within three hours of injection the symptom gradually faded
  symptoms in mice: periodic unprovoked jumps
[2]; intracerebroventricular, 0.2–1 mg purified toxin, for 20 minutes
  initial frequency of unprovoked jumps: about 3 jumps per minute
[2]; intracerebroventricular, range of injected doses 0.2–1 mg
  lethality during the observation period: did not show lethality

## parakinin-1 (PFIVPPFR; listed as Parabuthus transvaalicus)
[6]
  Mouse (SC): Hyperventilation,; also recorded: Hyperactivity
[7]
  Insect Lepidoptera: Contractive paralysis
[5]; preliminary biological activity
  Insect blowfly: Contractive paralysis
[2]
  Mouse (IC) high dose: Paralysis
  Mouse (IC) low dose: Hyperventilation,; also recorded: Hyperactivity

## parakinin-2 (PFVVPPFR; listed as Parabuthus transvaalicus)
[6]
  Mouse (SC): Hyperactivity
[2]
  Mouse (IC) high dose: Paralysis
  Mouse (IC) low dose: Hyperventilation,; also recorded: Hyperactivity

## uctoxin
[3]
  enhancement of the binding of [3H] BTX: 2 fold
  EC50: ~60 nM
[5]
  activity against blowfly (Sarcophaga) larvae (in words): bioactivity only in the case of the first major peak
[5]; listed as Uctoxin
  activity against blowfly (Sarcophaga) larvae (in words): immediate flaccid paralysis
[5]; last instar Sarcophaga larvae, flaccid paralysis
  ED50: about 70 ng/100 mg larvae
[2]
  symptoms in injected mice (in words): consistent contraction and tremors
[2]; intracerebroventricular, 0.5 μg of uctoxin
  time to lethality: ≤ 30 min
